Data reported in US8178658B2 (Dow AgroSciences, LLC, priority 2008, dated 2012).

Experiments:
[1] = tested on: beet armyworm (BAW; Spodoptera exigua: Lepidoptera); test: 96-well microtiter plate-based high throughput (HTS) diet bioassay on beet armyworm (BAW HTS); assay type: in vivo; settings: for BAW HTS: 96-well microtiter plate HTS diet assay, 12 μg test compound per well, BAW eggs, mortality at 6 d post-treatment, mortality class; for pest or weed control at 12 µg/well, 12 µg/well: Spodoptera exigua, 144 h, read-out: BAW HTS
Summary of the method: (§1)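 Compound was layered onto artificial diet and dried, then infested: eggs for the 96-well test (12 μg per well, 29° C, dark) and 3–5 second instars for the 128-well tray (50 μg/cm^2, 25° C, 14:10 light-dark). Both ran six days before percent mortality was recorded and averaged across replicates or wells.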

[2] = tested on: beet armyworm (BAW; Spodoptera exigua: Lepidoptera); test: 128-well diet tray assay on beet armyworm (BAW 50); assay type: in vivo; settings: for BAW 50 ug/cm2: 128-well diet tray assay, 50 μg/cm^2 of test compound on diet, second instar BAW larvae, mortality class; for pest or weed control at 50 µg/cm2, 50 µg/cm2: Spodoptera exigua, 144 h, read-out: BAW 50 ug/cm2
Summary of the method: as §1

Structure (SMILES) | BAW HTS [1] | pest or weed control at 12 µg/well, 12 µg/well [1] [%] | BAW 50 ug/cm2 [2] | pest or weed control at 50 µg/cm2, 50 µg/cm2 [2] [%]
CCO[C@@H]1[C@@H](OC)[C@H](C)O[C@@H](OC(=O)N(C)c2ccc(-c3ncn(-c4ccc(OC(F)(F)F)cc4)n3)cc2)[C@@H]1OC [Compound 250, methyl {4-[1-(4-trifluoromethoxyphenyl)-1H-[1,2,4]triazol-3-yl]-phenyl}-carbamic acid (2S,3R,4R,5S,6S)-4-ethoxy-3,5-dimethoxy-6-methyl-tetrahydropyran-2-yl ester] | B (either (1) the compound was tested and less than 50 percent mortality was observed or (2) the compound was not tested) | < 50 | A (the compound was tested and at least 50 percent mortality was observed) | > 50
CCO[C@@H]1[C@@H](OC)[C@H](C)O[C@@H](OC(=O)N(C)c2ccc(-c3ncn(-c4ccc(OC(F)(F)C(F)(F)F)cc4)n3)cc2)[C@@H]1OC [Compound 251, methyl {4-[1-(4-pentafluoroethoxy-phenyl)-1H-[1,2,4]triazol-3-yl]-phenyl}-carbamic acid (2S,3R,4R,5S,6S)-4-ethoxy-3,5-dimethoxy-6-methyl-tetrahydropyran-2-yl ester] | B (either (1) the compound was tested and less than 50 percent mortality was observed or (2) the compound was not tested) | < 50 | A (the compound was tested and at least 50 percent mortality was observed) | > 50
CCCO[C@@H]1[C@@H](OC)[C@H](C)O[C@@H](OC(=O)N(CC)c2ccc(-c3ncn(-c4ccc(OC(F)(F)C(F)(F)F)cc4)n3)cc2)[C@@H]1OC [Compound 253, ethyl {4-[1-(4-pentafluoroethoxy-phenyl)-1H-[1,2,4]triazol-3-yl]-phenyl}-carbamic acid (2S,3R,4R,5S,6S)-4-propoxy-3,5-dimethoxy-6-methyl-tetrahydropyran-2-yl ester] | A (the compound was tested and at least 50 percent mortality was observed) | > 50 | A (the compound was tested and at least 50 percent mortality was observed) | > 50
CCO[C@@H]1[C@@H](OC)[C@H](C)O[C@@H](OC(=O)N(COC)c2ccc(-c3ncn(-c4ccc(OC(F)(F)F)cc4)n3)cc2)[C@@H]1OC [Compound 254, methoxymethyl {4-[1-(4-trifluoromethoxyphenyl)-1H-[1,2,4]triazol-3-yl]-phenyl}-carbamic acid (2S,3R,4R,5S,6S)-4-ethoxy-3,5-dimethoxy-6-methyl-tetrahydropyran-2-yl ester] | A (the compound was tested and at least 50 percent mortality was observed) | > 50 | A (the compound was tested and at least 50 percent mortality was observed) | > 50
CCO[C@@H]1[C@@H](OC)[C@H](C)O[C@@H](OC(=O)N(COC)c2ccc(-c3ncn(-c4ccc(OC(F)(F)C(F)(F)F)cc4)n3)cc2)[C@@H]1OC [Compound 255, methoxymethyl {4-[1-(4-pentafluoroethoxyphenyl)-1H-[1,2,4]triazol-3-yl]-phenyl}-carbamic acid (2S,3R,4R,5S,6S)-4-ethoxy-3,5-dimethoxy-6-methyl-tetrahydropyran-2-yl ester] | B (either (1) the compound was tested and less than 50 percent mortality was observed or (2) the compound was not tested) | < 50 | A (the compound was tested and at least 50 percent mortality was observed) | > 50
C=CCN(C(=O)O[C@@H]1O[C@@H](C)[C@H](OC)[C@@H](OCC)[C@H]1OC)c1ccc(-c2ncn(-c3ccc(OC(F)(F)C(F)(F)F)cc3)n2)cc1 [Compound 256, allyl {4-[1-(4-pentafluoroethoxy-phenyl)-1H-[1,2,4]triazol-3-yl]-phenyl}-carbamic acid (2S,3R,4R,5S,6S)-4-ethoxy-3,5-dimethoxy-6-methyl-tetrahydropyran-2-yl ester] | A (the compound was tested and at least 50 percent mortality was observed) | > 50 | A (the compound was tested and at least 50 percent mortality was observed) | > 50
CCCO[C@@H]1[C@@H](OC)[C@H](C)O[C@@H](OC(=O)N(CO)c2ccc(-c3ncn(-c4ccc(OC(F)(F)C(F)(F)F)cc4)n3)cc2)[C@@H]1OC [Compound 257, hydroxymethyl {4-[1-(4-pentafluoroethoxy-phenyl)-1H-[1,2,4]triazol-3-yl]-phenyl}-carbamic acid (2S,3R,4R,5S,6S)-4-propoxy-3,5-dimethoxy-6-methyl-tetrahydropyran-2-yl ester] | B (either (1) the compound was tested and less than 50 percent mortality was observed or (2) the compound was not tested) | < 50 | A (the compound was tested and at least 50 percent mortality was observed) | > 50
CCO[C@@H]1[C@@H](OC)[C@H](C)O[C@@H](OC(=O)N(C(C)=O)c2ccc(-c3ncn(-c4ccc(OC(F)(F)C(F)(F)F)cc4)n3)cc2)[C@@H]1OC [Compound 258, acetyl {4-[1-(4-pentafluoroethoxyphenyl)-1H-[1,2,4]triazol-3-yl]-phenyl}-carbamic acid (2S,3R,4R,5S,6S)-4-ethoxy-3,5-dimethoxy-6-methyl-tetrahydropyran-2-yl ester] | A (the compound was tested and at least 50 percent mortality was observed) | > 50 | A (the compound was tested and at least 50 percent mortality was observed) | > 50
CCO[C@@H]1[C@@H](OC)[C@H](C)O[C@@H](OC(=O)N(C(=O)CCC(=O)OC)c2ccc(-c3ncn(-c4ccc(OC(F)(F)C(F)(F)F)cc4)n3)cc2)[C@@H]1OC [Compound 259, 4-(((2S,3R,4R,5S,6S)-4-ethoxy-3,5-dimethoxy-6-methyl-tetrahydropyran-2-yloxycarbonyl)-{4-[1-(4-pentafluoroethoxy-phenyl)-1H-[1,2,4]triazol-3-yl]-phenyl}-amino)-4-oxo-butyric acid methyl ester] | B (either (1) the compound was tested and less than 50 percent mortality was observed or (2) the compound was not tested) | < 50 | A (the compound was tested and at least 50 percent mortality was observed) | > 50
